Consider one compound from patent publication US9913831B2, “Methods and compositions for treating nephrogenic diabetes insipidus” (UNIVERSITY OF UTAH RESEARCH FOUNDATION, priority 2011, dated 2018).

In experiment [1] the test system is lithium-induced polyuria in mice (B6D2 genetic background). Particulars: lithium diet + clopidogrel 80 mg/kg bw/day 14 days vs LI alone, P<0.05 or better. As to the method:
Animal experiments: Male Sprague-Dawley rats were purchased from Charles River (Wilmington, Mass., USA), and Brattleboro mutant rats that lack AVP (HsdBlu:BRAT-Avpdi) were obtained from the Rat Resource & Research Center (RRRC), University of Missouri, Columbia, Mo., USA. Mice (B6D2 genetic background) were bred in-house. […] Lithium-added chow (40 mmol Li/kg chow) was custom prepared (MP Biomedicals, Aurora, Ohio, USA). Clopidogrel bisulfate was administered orally by powdering and dissolving Plavix® tablets (Bristol-Myers Squibb, New York, N.Y., USA) in drinking water. The concentration of the drug in the drinking water was adjusted daily based on the water consumption of the animals the previous day. The clopidogrel dose used in Sprague-Dawley rats (20 mg/kg bw/day) was the same as used by other investigators (de La Crux et al, 2003; Graciano et al, 2008). In mice, clopidogrel was administered at a dose of 80 mg/kg bw/day. When compared with the human clinical dose of Plavix®, and adjusted to the Km factor (ratio of body surface area to body weight) of the species (man vs. rat or mouse) (Reagan-Shaw et al, 2007), the doses used in rats or mice were 2.5- and 5-fold higher, respectively. […]
The effect of administration of clopidogrel on lithium-induced polyuria was determined in mice (B6D2 genetic background). […]

The test system of experiment [2] is lithium-induced polyuria in rats. As to the method:
Animal experiments: Male Sprague-Dawley rats were purchased from Charles River (Wilmington, Mass., USA), and Brattleboro mutant rats that lack AVP (HsdBlu:BRAT-Avpdi) were obtained from the Rat Resource & Research Center (RRRC), University of Missouri, Columbia, Mo., USA. Mice (B6D2 genetic background) were bred in-house. […] Lithium-added chow (40 mmol Li/kg chow) was custom prepared (MP Biomedicals, Aurora, Ohio, USA). Clopidogrel bisulfate was administered orally by powdering and dissolving Plavix® tablets (Bristol-Myers Squibb, New York, N.Y., USA) in drinking water. The concentration of the drug in the drinking water was adjusted daily based on the water consumption of the animals the previous day. The clopidogrel dose used in Sprague-Dawley rats (20 mg/kg bw/day) was the same as used by other investigators (de La Crux et al, 2003; Graciano et al, 2008). In mice, clopidogrel was administered at a dose of 80 mg/kg bw/day. When compared with the human clinical dose of Plavix®, and adjusted to the Km factor (ratio of body surface area to body weight) of the species (man vs. rat or mouse) (Reagan-Shaw et al, 2007), the doses used in rats or mice were 2.5- and 5-fold higher, respectively. […] A higher dose of clopidogrel (40 mg/kg bw/day) was used in Brattleboro rats to ensure an unequivocal outcome whether positive or negative. Twenty-four hour urine samples were collected by placing the animals in the appropriate metabolic cages designed for rats and mice. Blood and kidney tissues were collected at necropsy. Cortical, outer and inner medullary regions of the kidneys were dissected out and processed for laboratory assays.
Microhematocrit was determined by centrifuging free-flowing blood collected in heparinized capillary tubes in a microhematocrit centrifuge (Clay Adams, Parsippany, N.J., USA). Urinary excretion of AVP was quantified by a commercial ELISA kit (Enzo Life Sciences, Farmingdale, N.Y., USA). […] Based on serum and urine analysis, electrolyte-free clearance [CH20(e)] was computed using the formula CH20(e)=V((1−UNa+UK)/PNa), where V=urine volume, UNa and UK are urine Na and K, and PNa is plasma Na, respectively (Schrier 2006). Lithium levels in inner medullary tissue homogenates were assayed by Inductively Coupled Plasma-Mass Spectrometry (ICPMS) by Exova (Santa Fe Springs, Calif., USA), and were normalized to their respective protein contents.

Turning to `COC(=O)[C@H](c1ccccc1Cl)N1CCc2sccc2C1` [clopidogrel], the water intake entry in experiment [1] is “significant decrease”. In addition, the “solute-free water absorption (negative value)” value in experiment [2] (clopidogrel administered alone) is recorded as “modestly increased”. For the same compound, in experiment [2] (co-administration of clopidogrel with lithium), the “lithium-induced urinary AVP levels” value is given as “augmented”. In experiment [2] (lithium diet 40 mmol/kg chow + clopidogrel 20 mg/kg/day, 13 days), the lithium-induced polyuria entry is given as “significantly ameliorated”. Further, the “lithium-induced solute-free water excretion (electrolyte-free water clearance, positive value)” value in experiment [2] (lithium diet + clopidogrel 20 mg/kg/day, 13 days) is reported as “effectively reversed”.
